Results on seven compounds are retold here after ChEMBL document CHEMBL1201862, “PubChem BioAssay data set” (2004).

Assay [1] deals with Mitogen-activated protein kinase 10 (Homo sapiens, UniProt P53779). Nature of the assay: Dose response biochemical screening assay for inhibitors of c-Jun N-Terminal Kinase 3 (JNK3). [Related pubchem assays: 746 ].
In another assay the target is Protein Tat (Human immunodeficiency virus type 1 group M subtype B (isolate HXB2)(HIV-1), UniProt P04608). Format: functional.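 Further: tat binding to TAR RNA read out by fluorescence polarization.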
Protein Tat, sequence (P04608 whole entry): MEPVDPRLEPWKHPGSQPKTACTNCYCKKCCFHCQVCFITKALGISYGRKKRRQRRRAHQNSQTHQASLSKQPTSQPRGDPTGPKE
Assay [2] concerns the target T1, Replicative DNA helicase DnaB (Mycobacterium tuberculosis, UniProt P9WMR3).
T1 sequence (P9WMR3 whole entry): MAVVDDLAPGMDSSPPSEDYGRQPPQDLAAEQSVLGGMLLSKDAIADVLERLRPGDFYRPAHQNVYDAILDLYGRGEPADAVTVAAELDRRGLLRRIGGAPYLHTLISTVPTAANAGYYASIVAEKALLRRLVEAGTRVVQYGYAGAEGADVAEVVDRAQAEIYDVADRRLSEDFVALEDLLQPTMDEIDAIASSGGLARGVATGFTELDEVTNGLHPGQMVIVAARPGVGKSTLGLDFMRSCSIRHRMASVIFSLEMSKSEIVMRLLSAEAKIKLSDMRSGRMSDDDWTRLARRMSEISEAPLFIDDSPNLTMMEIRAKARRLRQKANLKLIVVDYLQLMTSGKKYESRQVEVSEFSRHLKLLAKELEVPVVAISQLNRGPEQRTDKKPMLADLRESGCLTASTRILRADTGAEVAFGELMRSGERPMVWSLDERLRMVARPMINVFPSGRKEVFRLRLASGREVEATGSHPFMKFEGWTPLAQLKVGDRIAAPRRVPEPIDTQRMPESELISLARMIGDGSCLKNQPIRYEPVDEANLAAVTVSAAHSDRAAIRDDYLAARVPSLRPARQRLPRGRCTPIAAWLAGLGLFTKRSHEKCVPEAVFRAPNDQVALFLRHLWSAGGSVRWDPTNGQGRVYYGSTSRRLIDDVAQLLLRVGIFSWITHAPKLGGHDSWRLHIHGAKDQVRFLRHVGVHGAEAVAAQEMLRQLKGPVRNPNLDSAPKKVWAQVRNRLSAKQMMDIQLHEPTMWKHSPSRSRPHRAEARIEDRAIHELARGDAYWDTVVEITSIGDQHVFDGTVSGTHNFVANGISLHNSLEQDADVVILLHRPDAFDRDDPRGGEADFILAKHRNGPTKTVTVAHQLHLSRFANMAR
Nature of the assay: DnaB intein splicing inhibitors, dose response, biochemical, cell-free fluorescence (AID 449749). Type of assay: functional.

The target in a further assay is T2, Protein RecA (Mycobacterium tuberculosis, UniProt P9WHJ3).
T2 sequence (P9WHJ3 whole entry): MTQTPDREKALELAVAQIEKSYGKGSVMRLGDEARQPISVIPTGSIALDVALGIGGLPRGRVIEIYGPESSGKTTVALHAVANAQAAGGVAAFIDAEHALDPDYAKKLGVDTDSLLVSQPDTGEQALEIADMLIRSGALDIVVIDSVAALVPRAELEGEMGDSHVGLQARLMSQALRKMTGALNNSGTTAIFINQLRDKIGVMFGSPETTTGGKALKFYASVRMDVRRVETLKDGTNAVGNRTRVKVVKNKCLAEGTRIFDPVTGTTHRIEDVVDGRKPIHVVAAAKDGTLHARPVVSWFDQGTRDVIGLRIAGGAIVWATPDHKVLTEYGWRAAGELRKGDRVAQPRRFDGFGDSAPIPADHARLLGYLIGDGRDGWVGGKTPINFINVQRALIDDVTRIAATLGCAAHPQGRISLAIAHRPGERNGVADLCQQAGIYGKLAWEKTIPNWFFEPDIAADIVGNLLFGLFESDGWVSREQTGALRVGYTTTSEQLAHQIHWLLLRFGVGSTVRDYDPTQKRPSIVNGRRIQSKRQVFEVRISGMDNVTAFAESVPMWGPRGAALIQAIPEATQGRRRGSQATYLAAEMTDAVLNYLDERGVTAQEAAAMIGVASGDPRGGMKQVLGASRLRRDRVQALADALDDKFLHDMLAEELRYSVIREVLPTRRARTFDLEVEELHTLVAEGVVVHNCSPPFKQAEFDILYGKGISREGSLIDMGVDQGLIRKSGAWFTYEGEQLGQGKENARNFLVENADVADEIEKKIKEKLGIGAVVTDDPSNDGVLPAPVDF
Kind of assay: Fluorescence Cell-Free Homogeneous Dose Retest to Identify Inhibitors of RecA-Intein Splicing Activity. [Related pubchem assays (depositor defined):AID2097, AID2223, AID489010, AID492950]. Type of assay: functional.

The nature of assay [3]: viability loss in THP-1 monocytes – THP-1 cells, cytotoxicity control for Vif-APOBEC3G degradation inhibitor project, dose response (AID 1117359). Type of assay: functional. To be noted: THP-1.
Assay [4] in a line: Late stage results for the probe development effort to identify inhibitors of Plasmodium falciparum gametocytes: Luminescence-based cell-based high throughput dose response assay to identify inhibitors of viability of late stage Plasmodium falciparum gametocytes. Type of assay: functional.
Assay [5] in a line: toxicity to HepG2 liver cells – cell-based, plate reader, dry powder, set 6, cytotoxicity control, dose response (AID 743311). Type of assay: functional.
Assay [6] can be described thus: IC50 of insulin release inhibition, rat insulinoma INS-1E line, 5 mM glucose, cell-based (AID 1117331). Type of assay: functional.
Another assay in a line: cells. Format: functional, cell-based. To be noted: INS-1E.
The nature of assay [7]: glucagon-like peptide-1 release potency in STC-1, concentration-response, half-maximal inhibitory concentration in the STC-1 line (AID 1117345). Type of assay: functional, cell-based.
Assay [8] in a line: Potency on glucagon-like peptide 1 release, dose-response in NCI-H716 cell line, half maximal inhibitory concentration (AID 1117344). Type of assay: functional, cell-based.
Assay [9] is described as follows: RKO cell viability reduction, dose response, CellTiter-Glo luminescence (AID 1117322). Format: functional. (In general: ATP-based viability assays read luminescence as a measure of living cells.)
Assay [10] is described as follows: CellTiter-Glo luminescence survival assay, SW480 colon tumor line, concentration-response curve, half-maximal inhibitory concentration (AID 1117338). Type of assay: functional.
Assay [11] can be described thus: Reduced DLD-1 viability, concentration-response, CellTiter-Glo luminescence (AID 1117352). Format: functional.
Assay [12] is described as follows: cytotoxicity toward Colo320 cells – cell-based, CellTiter-Glo luminescence, IC50, dose response (AID 1117334). The settings on record: COLO 320. Type of assay: functional.
The nature of assay [13]: rise of 4N DNA cells, HeLa – IC50, dose response (AID 1117351). Format: functional, cell-based.
A short description of assay [14]: HCT116 cell viability decrease, GSK3B pretreatment – CellTiter-Glo, IC50, dose response (AID 1117339). Type of assay: functional. The settings on record: HCT-116.
A short description of assay [15]: rise of 2N DNA cells, HeLa – IC50, dose response (AID 1117349). Type of assay: functional, cell-based.
Assay [16] can be described thus: cytotoxicity toward HCT116 cells – cell-based, CellTiter-Glo luminescence, IC50, dose response (AID 1117332). Format: functional. To be noted: HCT-116.
Assay [17] can be described thus: cytotoxicity toward HT-29 cells – cell-based, CellTiter-Glo luminescence, IC50, dose response (AID 1117330). Format: functional.
Assay [18] in a line: SNU-C1 cell viability reduction, dose response, CellTiter-Glo luminescence (AID 1117323). Format: functional, cell-based.

Counter-ions that a name gives are not always drawn. The source made the active and inactive calls.

Mitogen-activated protein kinase 10, sequence (P53779 whole entry): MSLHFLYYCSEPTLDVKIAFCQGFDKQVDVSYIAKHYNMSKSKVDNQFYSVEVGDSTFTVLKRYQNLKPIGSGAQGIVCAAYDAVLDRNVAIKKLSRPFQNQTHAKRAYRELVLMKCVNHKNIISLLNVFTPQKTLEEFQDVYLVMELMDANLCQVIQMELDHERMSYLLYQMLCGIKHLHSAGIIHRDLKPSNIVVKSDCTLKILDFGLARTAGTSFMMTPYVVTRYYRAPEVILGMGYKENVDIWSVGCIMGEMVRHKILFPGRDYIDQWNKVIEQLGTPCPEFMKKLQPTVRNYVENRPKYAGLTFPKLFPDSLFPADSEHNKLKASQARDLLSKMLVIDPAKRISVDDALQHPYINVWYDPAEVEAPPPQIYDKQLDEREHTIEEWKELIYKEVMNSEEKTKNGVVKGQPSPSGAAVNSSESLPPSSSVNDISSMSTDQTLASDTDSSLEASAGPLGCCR

The term IC50 denotes the concentration at which inhibition is half-maximal. Consider `Cc1ccccc1-n1nc(C)c2cc(C(=O)N3CCOCC3)sc21`, for which the IC50 in assay [1] is > 93.1 µM (not active).
The term AC50 denotes the midpoint of the concentration-response curve, whichever way the signal moves. The EC50 is the concentration needed to bring the measured effect to its halfway point. The CC50 is the concentration giving 50% cytotoxicity. `CC1=CC(C)(C)N2C(=O)/C(=N/c3ccc(O)cc3)c3cccc1c32`: the IC50 on Protein Tat was > 100 µM (active). In [2], the AC50 is > 380 µM (inactive). For the same compound, on Protein RecA, the EC50 is > 380 µM (inactive). The CC50 in assay [3] is 9.38 µM (active).
Consider `Cc1cnc(NC(=O)c2cn(-c3ccccc3)nc2-c2cccnc2)s1`, for which the IC50 in assay [4] was > 74.4 µM (inactive).
On to `O=S(=O)(c1ccc(OCCn2cnc3ccccc32)cc1)N1CCOCC1`, for which the AC50 in assay [5] is > 52 µM (inactive).
Turning to `NC[C@H]1CC[C@H](C(=O)Oc2ccc(CCC(=O)O)cc2)CC1` [CETRAXATE HYDROCHLORIDE], the IC50 (in assay [6]; in “cells”) was > 33.3 µM (inactive) each time.
With `CCCCC(CC)CN1CN(CC(CC)CCCC)CC(C)(N)C1` (stereo unspecified) [HEXETIDINE], the IC50 in [7] is 26.6 µM (inactive); in assay [8], 36.4 µM (inactive).
`Cc1nc(N)nc(N)c1-c1ccc(Cl)c(Cl)c1` [METOPRINE]: the IC50 in assay [9] is 0.117 µM (active); in assay [10], 0.512 µM (active); in [11], 0.634 µM (active); in assay [12], 2.03 µM (active); in assay [13], > 10 µM (inactive); in assay [14], 0.0589 µM (active). Also, the IC50 was > 10 µM (inactive) in assay [15], 0.413 µM (active) in [16], 0.932 µM (active) in [17] and 2.16 µM (active) in [18].
